Experimental data from US4731451A, “N-((2-oxo-3(2H)benzothiazolyl)methyl)-2-chloroacetanilides” (Monsanto Company, priority 1980, dated 1988).

Assays:
Type in all cases: in vivo
Barnyardgrass [1] = test: Pre-emergent herbicidal activity (Table II); conditions: 2-3 weeks
Description: (§1) The pre-emergence tests are conducted as follows:
(§2) A good grade of top soil is placed in aluminum pans and compacted to a depth of three-eighths to one-half inch from the top of the pan. On the top of the soil is placed a predetermined number of seeds or vegetative propagules of various plant species. The soil required to level fill the pans after seeding or adding vegetative propagules is weighed into a pan. A known amount of the active ingredient applied in a solvent or as a wettable powder suspension and the soil are thoroughly mixed, and used as a cover layer for prepared pans. After treatment, the pans are moved into a greenhouse bench where they are watered from below as needed to give adequate moisture for germination and growth.
(§3) Approximately 2-3 weeks after seeding and treating, the plants are observed and the results recorded. The herbicidal rating is obtained by means of fixed scale based on the percent injury of each plant species. The ratings are defined as follows: […]
(§4) The plant species utilized in one set of tests, the data for which are shown in Table II, are identified by letter in accordance with the following legend: […]

Canada Thistle = test: Pre-emergent herbicidal activity (Table II); conditions: 2-3 weeks
Description: as §1, §2, §3, §4

Cocklebur [2] = test: Pre-emergent herbicidal activity (Table II); conditions: 2-3 weeks
Description: as §1, §2, §3, §4

Downy Brome [3] = test: Pre-emergent herbicidal activity (Table II); conditions: 2-3 weeks
Description: as §1, §2, §3, §4

Johnsongrass = test: Pre-emergent herbicidal activity (Table II); conditions: 2-3 weeks
Description: as §1, §2, §3, §4

Lambsquarters [4] = test: Pre-emergent herbicidal activity (Table II); conditions: 2-3 weeks
Description: as §1, §2, §3, §4

Morningglory [5] = test: Pre-emergent herbicidal activity (Table II); conditions: 2-3 weeks
Description: as §1, §2, §3, §4

Quackgrass = test: Pre-emergent herbicidal activity (Table II); conditions: 2-3 weeks
Description: as §1, §2, §3, §4

Smartweed [6] = test: Pre-emergent herbicidal activity (Table II); conditions: 2-3 weeks
Description: as §1, §2, §3, §4

Velvetleaf [7] = test: Pre-emergent herbicidal activity (Table II); conditions: 2-3 weeks
Description: as §1, §2, §3, §4

Yellow Nutsedge = test: Pre-emergent herbicidal activity (Table II); conditions: 2-3 weeks
Description: as §1, §2, §3, §4

Barnyardgrass [8] = test: Pre-emergent herbicidal activity (Table III)
Description: as §1, §2, §3
(§5) The compounds were further tested by utilizing the above procedure on the following plant species: […]

Cocklebur [9] = test: Pre-emergent herbicidal activity (Table III)
Description: as §1, §2, §3, §5

Crabgrass = test: Pre-emergent herbicidal activity (Table III)
Description: as §1, §2, §3, §5

Downy Brome [10] = test: Pre-emergent herbicidal activity (Table III)
Description: as §1, §2, §3, §5

Hemp Sesbania = test: Pre-emergent herbicidal activity (Table III)
Description: as §1, §2, §3, §5

Lambsquarters [11] = test: Pre-emergent herbicidal activity (Table III)
Description: as §1, §2, §3, §5

Morningglory [12] = test: Pre-emergent herbicidal activity (Table III)
Description: as §1, §2, §3, §5

Panicum = test: Pre-emergent herbicidal activity (Table III)
Description: as §1, §2, §3, §5

Rice = test: Pre-emergent herbicidal activity (Table III)
Description: as §1, §2, §3, §5

Smartweed [13] = test: Pre-emergent herbicidal activity (Table III)
Description: as §1, §2, §3, §5

Sorghum = test: Pre-emergent herbicidal activity (Table III)
Description: as §1, §2, §3, §5

Soybean = test: Pre-emergent herbicidal activity (Table III)
Description: as §1, §2, §3, §5

Sugarbeet = test: Pre-emergent herbicidal activity (Table III)
Description: as §1, §2, §3, §5

Velvetleaf [14] = test: Pre-emergent herbicidal activity (Table III)
Description: as §1, §2, §3, §5

Wheat = test: Pre-emergent herbicidal activity (Table III)
Description: as §1, §2, §3, §5

Wild Buckwheat = test: Pre-emergent herbicidal activity (Table III)
Description: as §1, §2, §3, §5
Further: ranges in brackets are in %.

COc1cccc(C)c1N(Cn1c(=O)sc2ccccc21)C(=O)CCl [Example 2, N-(2'-methoxy-6'-methyl)-N-[(2-oxo-3(2H)-benzothiazolyl)methyl]-2-chloroacetanilide]
Herbicidal rating (Barnyardgrass [1]; 5.6 kg/ha): 3 (75-100)
Herbicidal rating (Barnyardgrass [1]; 11.2 kg/ha): 3 (75-100)
Herbicidal rating (Canada Thistle; 5.6 kg/ha): 0 (0-24)
Herbicidal rating (Canada Thistle; 11.2 kg/ha): 0 (0-24)
Herbicidal rating (Cocklebur [2]; 5.6 kg/ha): 0 (0-24)
Herbicidal rating (Cocklebur [2]; 11.2 kg/ha): 0 (0-24)
Herbicidal rating (Downy Brome [3]; 5.6 kg/ha): 1 (25-49)
Herbicidal rating (Downy Brome [3]; 11.2 kg/ha): 2 (50-74)
Herbicidal rating (Johnsongrass; 5.6 kg/ha): 0 (0-24)
Herbicidal rating (Johnsongrass; 11.2 kg/ha): 0 (0-24)
Herbicidal rating (Lambsquarters [4]; 5.6 kg/ha): 1 (25-49)
Herbicidal rating (Lambsquarters [4]; 11.2 kg/ha): 1 (25-49)
Herbicidal rating (Morningglory [5]; 5.6 kg/ha): 0 (0-24)
Herbicidal rating (Morningglory [5]; 11.2 kg/ha): 0 (0-24)
Herbicidal rating (Quackgrass; 5.6 kg/ha): 2 (50-74)
Herbicidal rating (Quackgrass; 11.2 kg/ha): 1 (25-49)
Herbicidal rating (Smartweed [6]; 5.6 kg/ha): 0 (0-24)
Herbicidal rating (Smartweed [6]; 11.2 kg/ha): 0 (0-24)
Herbicidal rating (Velvetleaf [7]; 5.6 kg/ha): 0 (0-24)
Herbicidal rating (Velvetleaf [7]; 11.2 kg/ha): 0 (0-24)
Herbicidal rating (Yellow Nutsedge; 5.6 kg/ha): 3 (75-100)
Herbicidal rating (Yellow Nutsedge; 11.2 kg/ha): 3 (75-100)
Herbicidal rating (Barnyardgrass [8]; 0.0112 kg/ha): 0 (0-24)
Herbicidal rating (Barnyardgrass [8]; 0.056 kg/ha): 2 (50-74)
Herbicidal rating (Barnyardgrass [8]; 0.28 kg/ha): 3 (75-100)
Herbicidal rating (Barnyardgrass [8]; 1.12 kg/ha): 3 (75-100)
Herbicidal rating (Barnyardgrass [8]; 5.6 kg/ha): 3 (75-100)
Herbicidal rating (Cocklebur [9]; 0.0112 kg/ha): 0 (0-24)
Herbicidal rating (Cocklebur [9]; 0.056 kg/ha): 0 (0-24)
Herbicidal rating (Cocklebur [9]; 0.28 kg/ha): 0 (0-24)
Herbicidal rating (Cocklebur [9]; 1.12 kg/ha): 0 (0-24)
Herbicidal rating (Cocklebur [9]; 5.6 kg/ha): 0 (0-24)
Herbicidal rating (Crabgrass; 0.0112 kg/ha): 0 (0-24)
Herbicidal rating (Crabgrass; 0.056 kg/ha): 0 (0-24)
Herbicidal rating (Crabgrass; 0.28 kg/ha): 1 (25-49)
Herbicidal rating (Crabgrass; 1.12 kg/ha): 3 (75-100)
Herbicidal rating (Crabgrass; 5.6 kg/ha): 3 (75-100)
Herbicidal rating (Downy Brome [10]; 0.0112 kg/ha): 0 (0-24)
Herbicidal rating (Downy Brome [10]; 0.056 kg/ha): 0 (0-24)
Herbicidal rating (Downy Brome [10]; 0.28 kg/ha): 1 (25-49)
Herbicidal rating (Downy Brome [10]; 1.12 kg/ha): 3 (75-100)
Herbicidal rating (Downy Brome [10]; 5.6 kg/ha): 3 (75-100)
Herbicidal rating (Hemp Sesbania; 0.0112 kg/ha): 0 (0-24)
Herbicidal rating (Hemp Sesbania; 0.056 kg/ha): 0 (0-24)
Herbicidal rating (Hemp Sesbania; 0.28 kg/ha): 0 (0-24)
Herbicidal rating (Hemp Sesbania; 1.12 kg/ha): 0 (0-24)
Herbicidal rating (Hemp Sesbania; 5.6 kg/ha): 2 (50-74)
Herbicidal rating (Lambsquarters [11]; 0.0112 kg/ha): 0 (0-24)
Herbicidal rating (Lambsquarters [11]; 0.056 kg/ha): 0 (0-24)
Herbicidal rating (Lambsquarters [11]; 0.28 kg/ha): 2 (50-74)
Herbicidal rating (Lambsquarters [11]; 1.12 kg/ha): 3 (75-100)
Herbicidal rating (Lambsquarters [11]; 5.6 kg/ha): 1 (25-49)
Herbicidal rating (Morningglory [12]; 0.0112 kg/ha): 0 (0-24)
Herbicidal rating (Morningglory [12]; 0.056 kg/ha): 0 (0-24)
Herbicidal rating (Morningglory [12]; 0.28 kg/ha): 0 (0-24)
Herbicidal rating (Morningglory [12]; 1.12 kg/ha): 0 (0-24)
Herbicidal rating (Morningglory [12]; 5.6 kg/ha): 0 (0-24)
Herbicidal rating (Panicum; 0.0112 kg/ha): 0 (0-24)
Herbicidal rating (Panicum; 0.056 kg/ha): 2 (50-74)
Herbicidal rating (Panicum; 0.28 kg/ha): 1 (25-49)
Herbicidal rating (Panicum; 1.12 kg/ha): 3 (75-100)
Herbicidal rating (Panicum; 5.6 kg/ha): 3 (75-100)
Herbicidal rating (Rice; 0.0112 kg/ha): 0 (0-24)
Herbicidal rating (Rice; 0.056 kg/ha): 0 (0-24)
Herbicidal rating (Rice; 0.28 kg/ha): 1 (25-49)
Herbicidal rating (Rice; 1.12 kg/ha): 3 (75-100)
Herbicidal rating (Rice; 5.6 kg/ha): 3 (75-100)
Herbicidal rating (Smartweed [13]; 0.0112 kg/ha): 0 (0-24)
Herbicidal rating (Smartweed [13]; 0.056 kg/ha): 0 (0-24)
Herbicidal rating (Smartweed [13]; 0.28 kg/ha): 1 (25-49)
Herbicidal rating (Smartweed [13]; 1.12 kg/ha): 2 (50-74)
Herbicidal rating (Smartweed [13]; 5.6 kg/ha): 2 (50-74)
Herbicidal rating (Sorghum; 0.0112 kg/ha): 0 (0-24)
Herbicidal rating (Sorghum; 0.056 kg/ha): 0 (0-24)
Herbicidal rating (Sorghum; 0.28 kg/ha): 0 (0-24)
Herbicidal rating (Sorghum; 1.12 kg/ha): 1 (25-49)
Herbicidal rating (Sorghum; 5.6 kg/ha): 1 (25-49)
Herbicidal rating (Soybean; 0.0112 kg/ha): 0 (0-24)
Herbicidal rating (Soybean; 0.056 kg/ha): 0 (0-24)
Herbicidal rating (Soybean; 0.28 kg/ha): 0 (0-24)
Herbicidal rating (Soybean; 1.12 kg/ha): 0 (0-24)
Herbicidal rating (Soybean; 5.6 kg/ha): 0 (0-24)
Herbicidal rating (Sugarbeet; 0.0112 kg/ha): 0 (0-24)
Herbicidal rating (Sugarbeet; 0.056 kg/ha): 0 (0-24)
Herbicidal rating (Sugarbeet; 0.28 kg/ha): 0 (0-24)
Herbicidal rating (Sugarbeet; 1.12 kg/ha): 0 (0-24)
Herbicidal rating (Sugarbeet; 5.6 kg/ha): 0 (0-24)
Herbicidal rating (Velvetleaf [14]; 0.0112 kg/ha): 0 (0-24)
Herbicidal rating (Velvetleaf [14]; 0.056 kg/ha): 0 (0-24)
Herbicidal rating (Velvetleaf [14]; 0.28 kg/ha): 0 (0-24)
Herbicidal rating (Velvetleaf [14]; 1.12 kg/ha): 0 (0-24)
Herbicidal rating (Velvetleaf [14]; 5.6 kg/ha): 0 (0-24)
Herbicidal rating (Wheat; 0.0112 kg/ha): 0 (0-24)
Herbicidal rating (Wheat; 0.056 kg/ha): 0 (0-24)
Herbicidal rating (Wheat; 0.28 kg/ha): 0 (0-24)
Herbicidal rating (Wheat; 1.12 kg/ha): 0 (0-24)
Herbicidal rating (Wheat; 5.6 kg/ha): 2 (50-74)
Herbicidal rating (Wild Buckwheat; 0.0112 kg/ha): 0 (0-24)
Herbicidal rating (Wild Buckwheat; 0.056 kg/ha): 0 (0-24)
Herbicidal rating (Wild Buckwheat; 0.28 kg/ha): 0 (0-24)
Herbicidal rating (Wild Buckwheat; 1.12 kg/ha): 0 (0-24)
Herbicidal rating (Wild Buckwheat; 5.6 kg/ha): 0 (0-24)
